Values joined by “and” are separate entries in the source; they are usually repeats but may differ in a detail not shown here. Equal values may be shown once.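 Assay format: 96-well plates, 48-hour exposure. GI50 marks 50% less growth. At the TGI there is no net growth.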
Assays:
Experiment in all cases: NCI-60 cell line screen, 48 h
OVCAR-5 ovarian = system: OVCAR-5 ovarian
HOP-62 NSCLC = system: HOP-62 NSCLC
SK-MEL-5 melanoma = system: SK-MEL-5 melanoma
BT-549 breast = system: BT-549 breast
HS 578T breast = system: HS 578T breast
NCI-H522 lung = system: NCI-H522 lung
A498 renal = system: A498 renal
OVCAR-8 ovarian = system: OVCAR-8 ovarian
A549 NSCLC = system: A549 NSCLC
T-47D breast = system: T-47D breast

Structure (SMILES)	TGI (OVCAR-5 ovarian)	TGI (HOP-62 NSCLC)	TGI (SK-MEL-5 melanoma)	TGI (BT-549 breast)	TGI (HS 578T breast)	TGI (NCI-H522 lung)	TGI (A498 renal)	TGI (OVCAR-8 ovarian)	TGI (A549 NSCLC)	GI50 (T-47D breast)	TGI (T-47D breast)	GI50 (OVCAR-5 ovarian)	GI50 (HOP-62 NSCLC)	GI50 (SK-MEL-5 melanoma)	GI50 (HS 578T breast)	GI50 (A498 renal)	GI50 (OVCAR-8 ovarian)	GI50 (A549 NSCLC)	GI50 (NCI-H522 lung)
O=C1c2ccccc2C(=O)N1CCc1ncc(-c2ccccc2)[nH]1	> 100 µM	> 100 µM	> 100 µM	> 100 µM	> 100 µM	> 100 µM	> 100 µM	> 100 µM	> 100 µM										
C=C(C)[C@@H]1CC[C@]2(CO)CC[C@]3(C)[C@H](CC[C@@H]4[C@@]5(C)CCCNC(C)(C)[C@@H]5CC[C@]43C)[C@@H]12	2.89 µM	3.42 µM	2.7 µM		4.79 µM		5.63 µM	3.51 µM	3.24 µM	1.73 µM	3.71 µM	1.51 µM	1.81 µM	1.38 µM	1.99 µM	2.17 µM	1.83 µM	1.73 µM	
CN(C)c1ccc(/C=c2\sc3nnc(-c4ccco4)n3c2=O)cc1	> 100 µM	> 100 µM	> 100 µM			> 100 µM	> 100 µM	> 100 µM	> 100 µM										
COc1ccc(/C=C/c2cc(OC)c(OC(C)=O)c(OC)c2)cc1	59 µM	73.7 µM				46.1 µM		> 100 µM	> 100 µM										
c1ccc(SC(Sc2ccccc2)=C2CCC2)cc1		> 100 µM	> 100 µM			> 100 µM	> 100 µM	> 100 µM	> 100 µM										
O=C1c2ccccc2-c2c3c(cc4ccnc1c24)OCO3	37.8 µM and 57.6 µM	21.1 µM	8.66 µM			13.3 µM and 15.5 µM	12.8 µM	27.7 µM and 25.5 µM	14.3 µM and 17.4 µM										0.885 µM and 4.26 µM
CC(Oc1ccc2c(-c3ccc(Cl)cc3)cc(=O)oc2c1)C(=O)O (centres undefined)		> 100 µM	> 100 µM			> 100 µM	> 100 µM	> 100 µM	> 100 µM										
CSC(=NC(=O)c1ccccc1Cl)SCCSC(=NC(=O)c1ccccc1Cl)SC	> 100 µM	> 100 µM	> 100 µM			> 100 µM	> 100 µM	> 100 µM	> 100 µM										
CCN(CC)CCN(CC)CC.CCN(CC)CCN(CC)CC.[Cu+2].[Cu+2].[O-][Cl+3]([O-])([O-])[O-].[OH3+].[OH3+]		40.3 µM	29.5 µM			55.2 µM	37.9 µM	> 100 µM	> 100 µM				22.5 µM	15.6 µM		22.4 µM	> 100 µM	30.2 µM	25.6 µM
Cc1ccc(NCC2(/N=C/c3ccccc3)OC(CO)C(O)C2O)cc1 (centres undefined)	> 100 µM	> 100 µM	> 100 µM			> 100 µM		> 100 µM	> 100 µM										
CCC[CH2][Sn](=[O])[CH2]CCC	> 50 µM	> 50 µM	> 50 µM			> 50 µM		> 50 µM	> 50 µM			> 30.3 µM	> 50 µM	> 50 µM			> 50 µM	> 50 µM	> 50 µM

— PubChem BioAssay (NCI)
